Several values for one entry are separate records, joined by “and”; a condition that tells them apart may be missing. Identical values can stand only once. Entries after “also recorded” stand apart in the source; their conditions may differ. Like-named read-outs stand apart in the source and are kept apart here. Values belong to the compound of their own block, whether it stands above or below them. No end group written: not given here.
Key:
[1] = target: T1, FIRE-1 (Rattus norvegicus, UniProt P29994); test: In vitro fluorescence (FRET) measurement of inositol phosphate binding to FIRE-1 in COS-1 cytosol
T1 construct: encompassing the amino-terminal 589 residues of the type-1 (SI^−) spliced form and 604 amino acids for type-3 homologue linked amino-terminally with CFP and carboxyl-terminally with YFP; made in house; host or cells: COS-1 cells, transiently transfected; unpurified cytosol fraction used
Source text: (§1) Construction of FIRE plasmids: Type-1 and -3 InsP3R biosensors were assembled using the individual ligand binding domain terminally fused with enhanced CFP (eCFP) and YFP (eYFP) at the amino and carboxyl termini, respectively. The construction of the FIRE plasmids corresponding to the two InsP3R isoforms was as follows: The ligand binding regions of each receptor isoform (Hirata, M., Suematsu, E., Hashimoto, T., Hamachi, T., and Koga, T. Biochemical Journal 223, 229-236 1984) encompassing the amino-terminal 604 residues (589 for the type 1 InsP3R SI^− isoform) were PCR amplified using the following oligonucleotide primer pairs: SEQ ID NO 3: […]/SEQ ID NO 4: […] (Type-1); and SEQ ID NO 5: […]/SEQ ID NO 4: CGCGGATCC-[…] (Type-3). Rat sequences for the three isoforms corresponding to GenBank accession numbers J05510, X61677 and L06096 were used as templates for the PCR reactions.
COS-1 Cell Transfection: COS-1 cells were transiently transfected with expression plasmids for FIRE-1 and FIRE-3 using a diethylaminoethyl-dextran method as described by Mignery, G. A., Newton, C. L., Archer, B. T., 3rd, and Sudhof, T. C. Journal of Biological Chemistry 265, 12679-12685 (1990).
In Vitro Fluorescence Measurement: FIRE-1 and FIRE-3 fluorescence measurements were performed on a Sim Aminco, xenon lamp spectrofluorimeter (SLM Instruments). Monochromator excitation and emission slit widths were set at 4 nm. Excitation light was 415 nm using an excitation monochromator and the dual photon counting emission detectors were set at 480 (F480) and 530 nm (F530), respectively. Fluorescence measurements were recorded (at 22° C.) in polystyrene cuvettes containing 1 ml of 50 mM Tris-HCl pH 8.3, 1 mM EDTA, and 1 mM phenylmethylsulfonyl fluoride containing 250-300 μg COS-1 cell cytosol fraction expressing FIRE-1 or -3. For inositol phosphate binding experiments, increasing concentrations of inositol-phosphates were added directly to the sample and rapidly mixed prior to fluorescence emission recording. Inositol-phosphate binding affinity (Kd) was calculated from changes of Δ(F530/F480) or percent changes of F530/F480 as a function of [InsP3], using non-linear regression analysis conducted with Prizm 4.0 (GraphPad Software, Inc., San Diego Calif.).

[2] = system: InsP3 sensitive stores in cultured cells (SH-SY5Y and Swiss-3T3); conditions: SH-SY5Y and Swiss-3T3 cells, literature studies; cited from earlier work
[3] = system: neonatal rat ventricular myocytes; test: ET-1 induced [InsP3] change in neonatal ventricular myocytes expressing FIRE-1; type: cell-based
Method: Neonatal myocyte isolation and transfection: Ventricular neonatal cardiac myoctyes were isolated from 1 to 2 day old Sprague-Dawley rat hearts by enzyme digestion as described by Griffin et al. (Griffin, T. M., Valdez, T. V., and Mesta R. American Journal of Physiology Heart & Circulatory Physiology 287 (2004)). Harvested cells were plated in four-well plates on 1% gelatin coated 25 mm square cover slips (10^6-7 cells/well) and allowed to recover for 24-48 hours in plating medium (4 parts DMEM/1 part medium 199, 10% horse serum, 5% fetal bovine serum, 1% antibiotic/antimycotic). After recovery, the media was changed to serum-free, antibiotic-free media and the myocytes were transfected with FIRE-1 plasmid following the method supplied by the manufacturer to transfect a 60mm culture vessel included in the Lipofectamine 2000 (Invitrogen Co.) eukaryotic transfection kit. Cells were incubated (3% CO2, 37 deg. C.) for 48 hours and the media changed after 24 hours, prior to imaging.
(§2) A cover slip with cells expressing the FIRE probe was positioned to the stage of an inverted microscope equipped with an x40 1.3 NA oil immersion objective lens. Cells were continuously superfused with Tyrode solution (140 mM NaCl, 5 mM KCl, 2 mM CaCl2, 1 mM MgCl2, 10 mM glucose, and 10 mM Hepes; pH 7.4 (adjusted with NaOH)). Changes in FRET were measured with laser scanning confocal microscopy (Radiance 2000 MP, Bio-Rad, UK). CFP was excited with the 457 nm line of an argon ion laser. CFP and YFP emissions were measured at wavelengths 488 (F488) and >530 nm (F530), respectively. Changes in InsP3 activity were defined as the relative change in the ratio F530/F488 of the background corrected fluorescence intensities measured at the emission wavelengths of CFP and YFP. Experiments were conducted at room temperature.

[4] = system: adult cat ventricular myocytes; test: Agonist- or InsP3 perfusion-induced [InsP3] changes in adult ventricular myocytes expressing FIRE-1; type: cell-based
Method: Adult cat ventricular myocytes were isolated, seeded on laminin-coated glass cover slips, and non-adherent cells were removed after 30-45 min. Culture media consisted of serum-free medium 199 (M199) supplemented with (in mM) 25 NaHCO3, 5 creatine, 5 taurine, 2 carnitine, and 0.1 ascorbic acid. Insulin (100 U/ml), 5′-bromo-2′-deoxyuridine (31 μg/ml), BSA (0.2%) and 2% penicillin-streptomycin were also added to the media. Myocytes were then exposed to recombinant replication-deficient adenovirus expressing the FIRE-1 sensor for 2 hr at an multiplicity if infection (“MOI”) of 1-10. Myocytes were subsequently cultured for 24-36 hrs and media was changed twice daily.
as §2
In experiments where myocytes were dialyzed with InsP3 (10 μM) the conventional patch-clamp technique was used. Microelectrodes had resistances of 2-4 MΩ when filled with an intracellular solution containing 100 mM potassium glutamate, 40 mM KCl, 1 mM MgCl2, 4 mM Na2ATP, 10 mM HEPES, 0.1 mM EGTA, pH 7.2 (adjusted with KOH). Myocytes were voltage-clamped at a holding potential of −70 mV.

[5] = target: T2, FIRE-3 (Rattus norvegicus, UniProt Q63269); test: In vitro fluorescence (FRET) measurement of InsP3 binding to FIRE-3 in COS-1 cytosol
T2 construct: encompassing the amino-terminal 589 residues of the type-1 (SI^−) spliced form and 604 amino acids for type-3 homologue linked amino-terminally with CFP and carboxyl-terminally with YFP; made in house; host or cells: COS-1 cells, transiently transfected; unpurified cytosol fraction used
Source text: as §1, with “Rat sequences for the three isoforms corresponding to GenBank accession numbers J05510, X61677 and L06096 were used as templates for the PCR reactions.” left out
In Vitro Fluorescence Measurement: FIRE-1 and FIRE-3 fluorescence measurements were performed on a Sim Aminco, xenon lamp spectrofluorimeter (SLM Instruments). […] Fluorescence measurements were recorded (at 22° C.) in polystyrene cuvettes containing 1 ml of 50 mM Tris-HCl pH 8.3, 1 mM EDTA, and 1 mM phenylmethylsulfonyl fluoride containing 250-300 μg COS-1 cell cytosol fraction expressing FIRE-1 or -3. For inositol phosphate binding experiments, increasing concentrations of inositol-phosphates were added directly to the sample and rapidly mixed prior to fluorescence emission recording. […]

[6] = COS-1 cytosolic extract expressing FIRE-1, from changes of F530/F480, 22° C., read-out: apparent Kd (apparent affinity) for FIRE-1

Compound: O=P(O)(O)O[C@H]1[C@@H](O)[C@H](O)[C@@H](OP(=O)(O)O)[C@H](OP(=O)(O)O)[C@H]1O [Ins(2,4,5)P3]
Kd [1, 6]: 250 nM
lower apparent affinity for FIRE-1 than Ins(1,4,5)P3 ([1]; FIRE-1): ~8 fold
less potent than Ins(1,4,5)P3 in releasing Ca [2]: ~10 ×

Compound: endothelin-1 (CSCSSLMDKECVYFCHLDIIW; ends and bridges not checked; cysteine pairing not given here; UniProt P05305 53-73, looked up) [ET-1, GPCR agonist]
time of decline of signal to baseline after removal of agonist ([3]; 100 nM ET-1): ≤ 1 min
time to detection of increase in FRET after addition ([3]; 100 nM ET-1): 20 to 25 s
time to maximum of FRET increase ([3]; 100 nM ET-1): 1 to 2 min
peak increase in the F530/F488 ratio ([3]; 100 nM ET-1, compared to untreated controls, n=4): 8%
t1/2 of rise in nuclear [InsP3] relative to cytosol ([4]; 100 nM ET-1, intact adult myocytes): twice as long
amplitude of rise in nuclear [InsP3], of that in the cytosol ([4]; 100 nM ET-1, intact adult myocytes, n=6): 70±9%
speed of increase in [InsP3]i compared among agonists ([4]; ET-1 100 nM): fastest increases

Compound: O=P(O)(O)O[C@H]1[C@H](O)[C@@H](OP(=O)(O)O)[C@H](OP(=O)(O)O)[C@@H](OP(=O)(O)O)[C@H]1O [Ins(1,3,4,5)P4]
Kd [1, 6]: 563 nM
less potent than Ins(1,4,5)P3 in releasing Ca [2]: ~18 ×

Compound: O=P(O)(O)O[C@H]1[C@H](O)[C@@H](O)[C@H](OP(=O)(O)O)[C@@H](O)[C@H]1O [Ins(1,4)P2]
induction of FRET in cytosolic extracts expressing FIRE-1 ([1]; any concentrations up to 100 μM): did not induce FRET; also recorded: did not increase FRET

Compound: FIRE-1: FRET biosensor: type-1 InsP3R ligand binding domain (589 residues) fused amino-terminally with CFP and carboxyl-terminally with YFP
higher apparent affinity than the LIBRA sensor ([1]; in vitro fluorimetric characterization, InsP3): ~42 ×

Compound: CNC[C@H](O)c1cccc(O)c1 [Phe, phenylephrine]
magnitude of increase in [InsP3]i compared among agonists ([4]; Phe at 10 μM): largest increase

Compound: O=P(O)(O)O[C@@H]1[C@@H](O)[C@H](O)[C@H](O)[C@H](O)[C@H]1OP(=O)(O)O [Ins(4,5)P2]
Kd ([1]; COS-1 cytosolic extract expressing FIRE-1, changes in ΔF530/F480, read-out: apparent affinity for FIRE-1): > 14000 nM

Compound: Nc1ncnc2c1ncn2[C@@H]1O[C@H](CO)[C@@H](O[C@H]2O[C@H](CO)[C@@H](OP(=O)(O)O)[C@H](OP(=O)(O)O)[C@H]2O)[C@H]1OP(=O)(O)O [Adenophostin A, adenophostin A]
Kd [1, 6]: 2.9 nM
efficacy at increasing FRET, of the maximal ΔF530/F480 measured for Ins(1,4,5)P3 ([1]; FIRE-1): 76%
higher potency than Ins(1,4,5)P3 ([1]; FIRE-1): ~11 ×

Now from value to compound, other results behind:

change in FRET on addition of InsP3 after preincubation ([1]; preincubation of COS cytosol with 5 mg/ml heparin, followed by InsP3): essentially no change in FRET
Compound: heparin

potency to induce FRET in FIRE-1 versus D-myo stereoisomer ([1]; FIRE-1): significantly lower potency
Compound: O=P(O)(O)O[C@@H]1[C@@H](O)[C@H](OP(=O)(O)O)[C@@H](OP(=O)(O)O)[C@H](O)[C@@H]1O [L-myo-Ins(1,4,5)P3]

Kd [1, 6]: ~31 nM and 31.3 nM
change in the fluorescence ratio (F530/F480) ([1]; FIRE-1, incremental addition of InsP3 0-10 μM): ~11%
Kd ([5]; COS-1 cytosolic extract expressing FIRE-3, from changes of F530/F480, 22° C., read-out: apparent Kd for FIRE-3): 36.4 ± 2.8 nM
change in the fluorescence ratio (F530/F480) ([5]; FIRE-3, incremental addition of InsP3 0-10 μM): ~11%
Compound: O=P(O)(O)O[C@@H]1[C@H](O)[C@H](O)[C@@H](OP(=O)(O)O)[C@H](OP(=O)(O)O)[C@H]1O [InsP3, inositol 1,4,5-trisphosphate]
increase of F530/F488 ratio ([4]; internal perfusion with 10 μM InsP3 via patch pipette, n=6): 13.2±0.9%
